Data reported in patent US20240383856A1 (Zedira GmbH, priority 2021, published 2024).

Legend:
[1] = Caco-2 permeability assay (CacoReady kit); assay type: in vitro ADME; settings: human, Caco-2, Caco-2 barrier, CacoReady kit; above 1×10^−6 cm/s classified as permeable
How it was run: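 Papp values come from Caco-2 barrier studies intended to predict oral bioavailability; the manufacturer's procedure for the ready-made kit was followed.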

[2] = target: T1, recombinant human transglutaminase 2 (Homo sapiens, UniProt P21980); assay: Transglutaminase assay (DCC-assay): incorporation of dansylcadaverine into dimethylcasein; assay type: biochemical; settings: recombinant human TG2 10 nM; dansylcadaverine incorporation into dimethylcasein; read-out: IC50 TG2
T1 construct: purchased Zedira T022
T1 sequence (P21980 1-687): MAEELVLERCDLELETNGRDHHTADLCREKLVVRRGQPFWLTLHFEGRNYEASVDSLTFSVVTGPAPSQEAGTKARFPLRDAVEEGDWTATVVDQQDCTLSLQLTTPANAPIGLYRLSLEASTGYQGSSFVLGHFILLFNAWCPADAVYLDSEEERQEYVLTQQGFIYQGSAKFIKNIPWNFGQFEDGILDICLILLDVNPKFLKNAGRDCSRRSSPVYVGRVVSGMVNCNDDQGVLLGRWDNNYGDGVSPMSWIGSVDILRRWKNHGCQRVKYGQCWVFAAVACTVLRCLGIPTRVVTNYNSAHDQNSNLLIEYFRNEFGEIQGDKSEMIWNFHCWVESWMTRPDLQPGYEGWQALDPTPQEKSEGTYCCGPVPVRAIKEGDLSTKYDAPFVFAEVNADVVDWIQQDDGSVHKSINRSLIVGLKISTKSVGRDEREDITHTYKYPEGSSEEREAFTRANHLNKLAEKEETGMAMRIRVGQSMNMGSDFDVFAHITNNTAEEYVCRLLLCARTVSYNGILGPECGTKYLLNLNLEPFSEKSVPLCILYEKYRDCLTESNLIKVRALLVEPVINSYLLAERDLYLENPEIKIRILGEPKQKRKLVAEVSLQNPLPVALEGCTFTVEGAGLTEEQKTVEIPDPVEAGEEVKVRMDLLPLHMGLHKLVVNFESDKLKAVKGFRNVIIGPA
How it was run: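 Recombinant human TG2 (10 nM final) incorporates dansylcadaverine into N,N-dimethylcasein. Reaction mix: 50 mM Tris-HCl, 10 mM CaCl2, 10 mM glutathione, 2.5% glycerol, 16.7 µM dansylcadaverine, 4 µM dimethylcasein, 200 mM NaCl, pH 8.0. Fluorescence (ex 330/em 500 nm) was followed 30 min at 37 °C; the 20–30 min slope, expressed as % of 2% DMSO control, gave IC50.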

[3] = logD by shake flask method (octanol / PBS pH 7.4, HPLC); assay type: physicochemical; settings: octanol / PBS pH 7.4, shake flask
How it was run: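 Shake-flask partition of compound between octanol and phosphate-buffered saline at pH 7.4, with each phase quantified by HPLC to give LogD.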

| Papp [1] [×10⁻⁶ cm/s] | IC50 [2] [nM] | logD [3] | Structure (SMILES) |
| --- | --- | --- | --- |
| 1 to 10 | 40 to 400 | 3 to 5 | Cc1c(C(=O)N[C@@H](CCC(=O)C(=O)NC2CC2)C(=O)Nc2cccn(CC(=O)NC3C4CC5CC(C4)CC3C5)c2=O)oc2ccccc12 (stereo partly drawn) [II-115, (S)-N1-cyclopropyl-N6-(1-(2-(2-adamantylamino)-2-oxoethyl)-2-oxo-1,2-dihydropyridin-3-yl)-5-(3-methylbenzofuran-2-carboxamido)-2-oxohexanediamide] |
| 1 to 10 | 40 to 400 | 3 to 5 | CNC(=O)C(=O)CC[C@H](NC(=O)c1csc2ccccc12)C(=O)Nc1cccn(CC(=O)NC2C3CC4CC(C3)CC2C4)c1=O (stereo partly drawn) [II-137, (S)-2-(benzo[b]thiophene-3-carboxamido)-N1-(1-(2-(2-adamantylamino)-2-oxoethyl)-2-oxo-1,2-dihydropyridin-3-yl)-N6-methyl-5-oxohexanediamide] |
| 1 to 10 | < 40 | 3 to 5 | CNC(=O)C(=O)CC[C@H](NC(=O)c1csc(Br)c1)C(=O)Nc1cccn(CC(=O)NC2C3CC4CC(C3)CC2C4)c1=O (stereo partly drawn) [II-30, (S)-2-(5-bromothiophene-3-carboxamido)-N1-(1-(2-(2-adamantylamino)-2-oxoethyl)-2-oxo-1,2-dihydropyridin-3-yl)-N6-methyl-5-oxohexanediamide] |
| 1 to 10 | 40 to 400 | 1 to 3 | CNC(=O)C(=O)CC[C@H](NC(=O)c1sc(C(F)(F)F)nc1C)C(=O)Nc1cccn(CC(=O)N[C@H]2C[C@H]3CC[C@]2(C)C3(C)C)c1=O [II-159, (S)-N1-methyl-5-(4-methyl-2-(trifluoromethyl)thiazole-5-carboxamido)-2-oxo-N6-(2-oxo-1-(2-oxo-2-((1R,2S,4R)-1,7,7-trimethylbicyclo[2.2.1]heptan-2-ylamino)ethyl)-1,2-dihydropyridin-3-yl)hexanediamide] |
| 1 to 10 | < 40 | < 1 | CNC(=O)C(=O)CC[C@H](NC(=O)c1oc2ccccc2c1C)C(=O)Nc1cccn(CC(=O)NC23CC(C2)C3)c1=O [II-167, (S)-N1-(1-(2-(bicyclo[1.1.1]pentan-1-ylamino)-2-oxoethyl)-2-oxo-1,2-dihydropyridin-3-yl)-N6-methyl-2-(3-methylbenzofuran-2-carboxamido)-5-oxohexanediamide] |
| < 1 | 40 to 400 | < 1 | CNC(=O)C(=O)CC[C@H](NC(=O)c1ccc2occc2c1)C(=O)Nc1cccn(CC(=O)NC2C3CC4CC2CC(NC(C)=O)(C4)C3)c1=O (stereo partly drawn) [II-194, (S)-2-(benzofuran-5-carboxamido)-N1-(1-(2-(1-acetylamino-4-aminoadamantane)-2-oxoethyl)-2-oxo-1,2-dihydropyridin-3-yl)-N6-methyl-5-oxohexanediamide] |
| < 1 | 40 to 400 | 1 to 3 | CNC(=O)C(=O)CC[C@H](NC(=O)c1oc2ccccc2c1C)C(=O)Nc1cccn(CC(=O)N[C@H]2C[C@H]3CC[C@@H]2C3)c1=O [II-90, (S)-N1-(1-(2-((1R,2S,4S)-bicyclo[2.2.1]heptan-2-ylamino)-2-oxoethyl)-2-oxo-1,2-dihydropyridin-3-yl)-N6-methyl-2-(3-methylbenzofuran-2-carboxamido)-5-oxohexanediamide] |
| 1 to 10 | 40 to 400 | 1 to 3 | CNC(=O)C(=O)CC[C@H](NC(=O)c1cc(Cl)sc1Cl)C(=O)Nc1cccn(CC(=O)N[C@H]2C[C@H]3CC[C@]2(C)C3(C)C)c1=O [II-160, (S)-2-(2,5-dichlorothiophene-3-carboxamido)-N6-methyl-5-oxo-N1-(2-oxo-1-(2-oxo-2-((1R,2S,4R)-1,7,7-trimethylbicyclo[2.2.1]heptan-2-ylamino)ethyl)-1,2-dihydropyridin-3-yl)hexanediamide] |
| 1 to 10 | 40 to 400 | 1 to 3 | CNC(=O)C(=O)CC[C@H](NC(=O)c1cc(C)oc1C)C(=O)Nc1cccn(CC(=O)NC2C3CC4CC(C3)CC2C4)c1=O (stereo partly drawn) [II-37, (S)-2-(2,5-dimethylfuran-3-carboxamido)-N1-(1-(2-(2-adamantylamino)-2-oxoethyl)-2-oxo-1,2-dihydropyridin-3-yl)-N6-methyl-5-oxohexanediamide] |
| 1 to 10 | 400 to 2500 | < 1 | CNC(=O)C(=O)CC[C@H](NC(=O)c1cn(C)nn1)C(=O)Nc1cccn(CC(=O)NC2C3CC4CC(C3)CC2C4)c1=O (stereo partly drawn) [II-133, (S)-N1-(1-(2-(2-adamantylamino)-2-oxoethyl)-2-oxo-1,2-dihydropyridin-3-yl)-N6-methyl-2-(1-methyl-1H-1,2,3-triazole-4-carboxamido)-5-oxohexanediamide] |
| 1 to 10 | < 40 | 1 to 3 | CNC(=O)C(=O)CC[C@H](NC(=O)c1cc(Cl)sc1Cl)C(=O)Nc1cccn(CC(=O)N[C@@H]2C[C@@H]3CC[C@H]2C3)c1=O [II-155, (S)-N1-(1-(2-((1S,2R,4R)-bicyclo[2.2.1]heptan-2-ylamino)-2-oxoethyl)-2-oxo-1,2-dihydropyridin-3-yl)-2-(2,5-dichlorothiophene-3-carboxamido)-N6-methyl-5-oxohexanediamide] |
| < 1 | 40 to 400 | < 1 | CNC(=O)C(=O)CC[C@H](NC(=O)C1CCc2ccccc2C1)C(=O)Nc1cccn(CC(=O)NC2C3CC4CC2CC(C(=O)N(C)C)(C4)C3)c1=O (stereo partly drawn) [II-174, (2S)-N1-(1-(2-(4-aminoadamantane-N,N-dimethyl-1-carboxamide)-2-oxoethyl)-2-oxo-1,2-dihydropyridin-3-yl)-N6-methyl-5-oxo-2-(1,2,3,4-tetrahydronaphthalene-2-carboxamido)hexanediamide] |
| 1 to 10 | 40 to 400 | 3 to 5 | CNC(=O)C(=O)CC[C@H](NC(=O)c1oc2ccccc2c1C)C(=O)Nc1cccn(CC(=O)N[C@H]2C[C@H]3CC[C@@]2(C)C3(C)C)c1=O [II-92, (S)-N1-methyl-5-(3-methylbenzofuran-2-carboxamido)-2-oxo-N6-(2-oxo-1-(2-oxo-2-((1S,2S,4R)-1,7,7-trimethylbicyclo[2.2.1]heptan-2-ylamino)ethyl)-1,2-dihydropyridin-3-yl)hexanediamide] |
| < 1 | 40 to 400 | < 1 | CNC(=O)C(=O)CC[C@H](NC(=O)c1ccc2ccoc2c1)C(=O)Nc1cccn(CC(=O)NC2C3CC4CC2CC(C(N)=O)(C4)C3)c1=O (stereo partly drawn) [II-195, (S)-2-(benzofuran-6-carboxamido)-N1-(1-(2-(4-aminoadamantane-1-carboxamide)-2-oxoethyl)-2-oxo-1,2-dihydropyridin-3-yl)-N6-methyl-5-oxohexanediamide] |
| 1 to 10 | 40 to 400 | 3 to 5 | CNC(=O)C(=O)CC[C@H](NC(=O)c1oc2ccccc2c1C)C(=O)Nc1cccn(CC(=O)N[C@@H]2C[C@@H]3C[C@H]([C@H]2C)C3(C)C)c1=O [II-100, (S)-N1-methyl-5-(3-methylbenzofuran-2-carboxamido)-2-oxo-N6-(2-oxo-1-(2-oxo-2-((1R,2R,3R,5S)-2,6,6-trimethylbicyclo[3.1.1]heptan-3-ylamino)ethyl)-1,2-dihydropyridin-3-yl)hexanediamide] |
| < 1 | 400 to 2500 | < 1 | CNC(=O)C(=O)CC[C@H](NC(=O)c1ccn(C)n1)C(=O)Nc1cccn(CC(=O)NC2C3CC4CC(C3)CC2C4)c1=O (stereo partly drawn) [II-138, (S)-N1-(1-(2-(2-adamantylamino)-2-oxoethyl)-2-oxo-1,2-dihydropyridin-3-yl)-N6-methyl-2-(1-methyl-1H-pyrazole-3-carboxamido)-5-oxohexanediamide] |
| < 1 | 40 to 400 | 1 to 3 | CNC(=O)C(=O)CC[C@H](NC(=O)c1cncn1C)C(=O)Nc1cccn(CC(=O)NC23CC4CC(C)(CC(C)(C4)C2)C3)c1=O [II-210, (S)-N1-(1-(2-(3,5-dimethyladamantane-1-amino)-2-oxoethyl)-2-oxo-1,2-dihydropyridin-3-yl)-N6-methyl-2-(1-methyl-1H-imidazole-5-carboxamido)-5-oxohexanediamide] |
| 1 to 10 | 40 to 400 | 3 to 5 | O=C(Cn1cccc(NC(=O)[C@H](CCC(=O)C(=O)NC2CC2)NC(=O)c2cc3ccccc3o2)c1=O)NC1C2CC3CC(C2)CC1C3 (stereo partly drawn) [II-121, (S)-2-(benzofuran-2-carboxamido)-N6-cyclopropyl-N1-(1-(2-(2-adamantylamino)-2-oxoethyl)-2-oxo-1,2-dihydropyridin-3-yl)-5-oxohexanediamide] |
